3 compounds from patent US20100184094A1, “USE OF MDCK CELLS IN THE EVALUATION OF CHOLESTEROL MODULATORS” (priority 2007, published 2010) can be followed below.

One test has as its target T1, rat NPC1L1 (Rattus norvegicus, UniProt Q6T3U3).
T1 construct: expressed in transfected cells
In words: [3H]AS binding to rNPC1L1/HEK293 cells (saturation, kinetics, competition, acid wash). As to conditions: for IC50: 5.36 nM [3H]AS, 4 h, 37° C., read-out: IC50 inhibition of [3H]AS binding; for Ki: rNPC1L1/HEK293 cells. On the procedure:
rNPC1L1/HEK293 and TsA201 cells were seeded at a density of 10,000 cells per well in 96-well poly-D-lysine coated plates and cells were allowed to attach for approximately 18 h at 37° C. TsA201 cells were subsequently transfected with dog NPC1L1/pcDNA5/FRT according to the manufacturer's instructions (Roche) and incubated for 3 days at 37° C. MDCKII-derived, LLC-PKI, HepG2, or CaCo-2 cells were seeded at a density of 25,000 cells per well in 96-well tissue culture treated plates, and cells were allowed to attach and differentiate for approximately 72 h at 37° C., except for CaCo-2 cells where differentiation took approximately 14 days at 37° C. […] Duplicate samples were averaged for each experimental point. […] To determine the kinetics of ligand association, cells were incubated with [^3H]AS for different periods of time. Dissociation kinetics were determined by addition of 100 μM EZE-gluc, and incubating for different periods of time. Nonspecific binding was defined in the presence of 100 μM EZE-gluc. At the end of the incubation period, cells were washed twice with 200 μl of pre-warmed DMEM to separate bound from free ligand, 1% SDS was added to the wells followed by 5 ml of Scintillant, and radioactivity associated with cells was determined using a β-counter. […] Thereafter, plates were placed on ice and cells were washed twice with ice-cold PBS, followed by ice-cold acid wash with DMEM, pH 3.5, for 1, 5 or 15 minutes. […] For Transwell experiments, MDCKII cells were seeded at 200,000 cells/well in a 24-well plate and incubated for 3 days at 37° C. […] Thereafter, both apical and basolateral compartments were washed three times with PBS, and the Transwell filter was cut out and its associated radioactivity determined using afi-counter. Data from saturation, competition and ligand dissociation experiments were analyzed as described in the literature; see, Priest, et al., 2004 Biochemistry 43:9866-9876; Knaus et al., 1995 Biochemistry 34:13627-13634. The association rate, k1, was determined by employing the pseudo-first-order rate equation k1=kobs([LR]e/[L][LR]max)) where [LR]max is the concentration of the complex at equilibrium, [L] is the concentration of ligand, [LR]max is the total receptor concentration, kobs is the slope of the pseudo-first order plot, ln([LR]e/([LR]e−[LR]t)) versus time, and [LR]t is the receptor-ligand complex at one given time point t.
Incubation of rNPC1L1/HEK293 cells with 5 nM [311]AS results in a time-dependent association of ligand with cells that reaches equilibrium in ˜3 h (FIG. 1B). The nonspecific binding component is time-independent and has been subtracted from the experimental data. A semilogarithmic transformation of the data yielded a linear dependence (FIG. 1B, inset), as expected for a pseudo-first order reaction, and the slope of this line gives kobs of 0.0208 min^−1. The association rate constant, k1, calculated as described under Example 3, is 2.4×10^6 M^−1 min^−1.
Ki values, determined as described above, are presented in Table 1 below and display the expected rank order of potency for interaction of these ligands with rat NPC1L1; Garcia-Calvo et al., 2005 Proc. Natl. Acad. Sci. USA 102:8132-8137.
Such an approach has previously been previously used to characterize cell surface, non-covalent interactions; Hopkins & Trowbridge, 1983 J. Cell Biol. 97:508-521; Chen et al., 1998 Proc. Natl. Acad. USA 95:6373-6378.

In test [1] the target is dog NPC1L1 endogenously expressed in MDCKII cells (Canis lupus familiaris, UniProt A0A8I3RZG1). Description: [3H]AS binding to MDCKII cells (saturation, kinetics, competition, acid wash). As to conditions: for IC50: 5.49 nM [3H]AS, 4 h, 37° C., read-out: IC50 inhibition of [3H]AS binding; for Ki: MDCKII cells. On the procedure: rNPC1L1/HEK293 and TsA201 cells were seeded at a density of 10,000 cells per well in 96-well poly-D-lysine coated plates and cells were allowed to attach for approximately 18 h at 37° C. TsA201 cells were subsequently transfected with dog NPC1L1/pcDNA5/FRT according to the manufacturer's instructions (Roche) and incubated for 3 days at 37° C. MDCKII-derived, LLC-PKI, HepG2, or CaCo-2 cells were seeded at a density of 25,000 cells per well in 96-well tissue culture treated plates, and cells were allowed to attach and differentiate for approximately 72 h at 37° C., except for CaCo-2 cells where differentiation took approximately 14 days at 37° C. […] Duplicate samples were averaged for each experimental point. […] Dissociation kinetics were determined by addition of 100 μM EZE-gluc, and incubating for different periods of time. Nonspecific binding was defined in the presence of 100 μM EZE-gluc. At the end of the incubation period, cells were washed twice with 200 μl of pre-warmed DMEM to separate bound from free ligand, 1% SDS was added to the wells followed by 5 ml of Scintillant, and radioactivity associated with cells was determined using a β-counter. […] Thereafter, plates were placed on ice and cells were washed twice with ice-cold PBS, followed by ice-cold acid wash with DMEM, pH 3.5, for 1, 5 or 15 minutes. […] For Transwell experiments, MDCKII cells were seeded at 200,000 cells/well in a 24-well plate and incubated for 3 days at 37° C. […] Thereafter, both apical and basolateral compartments were washed three times with PBS, and the Transwell filter was cut out and its associated radioactivity determined using afi-counter. Data from saturation, competition and ligand dissociation experiments were analyzed as described in the literature; see, Priest, et al., 2004 Biochemistry 43:9866-9876; Knaus et al., 1995 Biochemistry 34:13627-13634. The association rate, k1, was determined by employing the pseudo-first-order rate equation k1=kobs([LR]e/[L][LR]max)) where [LR]max is the concentration of the complex at equilibrium, [L] is the concentration of ligand, [LR]max is the total receptor concentration, kobs is the slope of the pseudo-first order plot, ln([LR]e/([LR]e−[LR]t)) versus time, and [LR]t is the receptor-ligand complex at one given time point t.
Chain of dog NPC1L1 endogenously expressed in MDCKII cells (A0A8I3RZG1 entry or part of it): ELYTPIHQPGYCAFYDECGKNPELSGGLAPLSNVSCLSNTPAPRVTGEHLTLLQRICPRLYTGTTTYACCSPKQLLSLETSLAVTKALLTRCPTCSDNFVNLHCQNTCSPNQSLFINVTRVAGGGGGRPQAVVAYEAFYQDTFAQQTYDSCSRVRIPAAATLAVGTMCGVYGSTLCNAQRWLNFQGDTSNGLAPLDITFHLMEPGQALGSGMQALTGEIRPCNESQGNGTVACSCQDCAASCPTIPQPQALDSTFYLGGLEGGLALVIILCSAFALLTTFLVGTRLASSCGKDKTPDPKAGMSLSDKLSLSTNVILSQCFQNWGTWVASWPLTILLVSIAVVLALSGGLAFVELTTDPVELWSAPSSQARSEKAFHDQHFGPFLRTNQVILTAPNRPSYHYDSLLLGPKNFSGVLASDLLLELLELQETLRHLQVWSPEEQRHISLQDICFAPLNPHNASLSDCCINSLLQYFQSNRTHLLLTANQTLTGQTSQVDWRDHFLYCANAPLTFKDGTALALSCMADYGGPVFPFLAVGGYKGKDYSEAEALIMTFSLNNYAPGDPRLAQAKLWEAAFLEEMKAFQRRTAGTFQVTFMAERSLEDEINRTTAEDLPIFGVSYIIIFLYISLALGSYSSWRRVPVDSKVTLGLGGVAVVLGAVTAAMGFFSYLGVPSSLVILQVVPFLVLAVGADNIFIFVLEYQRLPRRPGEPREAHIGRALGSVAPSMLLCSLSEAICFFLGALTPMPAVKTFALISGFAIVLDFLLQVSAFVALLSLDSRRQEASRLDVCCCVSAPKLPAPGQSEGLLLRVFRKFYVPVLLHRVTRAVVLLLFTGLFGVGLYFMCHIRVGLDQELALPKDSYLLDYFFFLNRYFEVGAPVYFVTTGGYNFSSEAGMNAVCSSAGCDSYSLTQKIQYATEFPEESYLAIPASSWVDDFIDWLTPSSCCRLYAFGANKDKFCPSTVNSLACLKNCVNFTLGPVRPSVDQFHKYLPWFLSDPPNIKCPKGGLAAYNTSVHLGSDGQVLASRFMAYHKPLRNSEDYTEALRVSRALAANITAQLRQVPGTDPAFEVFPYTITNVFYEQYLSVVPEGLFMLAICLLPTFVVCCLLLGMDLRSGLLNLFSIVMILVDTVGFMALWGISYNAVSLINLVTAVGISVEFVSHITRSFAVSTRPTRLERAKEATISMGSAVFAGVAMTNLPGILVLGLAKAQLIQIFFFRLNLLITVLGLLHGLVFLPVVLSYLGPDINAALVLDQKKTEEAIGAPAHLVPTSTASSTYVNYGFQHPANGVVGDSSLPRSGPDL

Take `COC(=O)[C@H]1O[C@@H](Oc2ccc([C@@H]3[C@@H](CC[C@H](O)c4ccc(F)cc4)C(=O)N3c3ccc(C#CCNS(C)(=O)=O)cc3)cc2)[C@H](O)[C@@H](O)[C@@H]1O` [PS, 4-[(2S,3R)-3-[(3S)-3-(4-fluorophenyl)-3-hydroxypropyl]-1-(4-{3-[(methylsulfonyl)amino]prop-1-yn-1-yl}phenyl)-4-oxoazetidin-2-yl]phenyl methyl-β-D-glucopyranosiduronate]: on rat NPC1L1, the IC50 was 6.61 nM and the Ki amounted to 4.07 ± 1.47 nM. Also, in test [1], the IC50 was determined as 3.02 nM and the Ki came to 0.33 ± 0.05 nM.
`O=C1[C@H](CC[C@H](O)c2ccc(F)cc2)[C@@H](c2ccc(O)cc2)N1c1ccc(F)cc1` [EZE, Ezetimibe]: on rat NPC1L1, the IC50 came to 398 nM and the Ki came out at 209 ± 40.4 nM. For the same compound, in test [1], the IC50 turned out to be 126 nM and the Ki was found to be 14 ± 4.11 nM.
Consider `O=C(O)[C@H]1O[C@@H](Oc2ccc([C@@H]3[C@@H](CC[C@H](O)c4ccc(F)cc4)C(=O)N3c3ccc(F)cc3)cc2)[C@H](O)[C@@H](O)[C@@H]1O` [EZE-gluc, ezetimibe glucuronide], for which, on rat NPC1L1, the IC50 is 182 nM and the affinity, expressed as Ki, was 95.1 ± 8.62 nM. In addition, in test [1], the IC50 was determined as 24 nM and the Ki turned out to be 3.51 ± 0.89 nM. In addition, the “fold weaker than AS and PS as inhibitor of [3H]AS binding” value in test [1] (MDCK cells) is about 10 fold.

As usually defined, the IC50 is the concentration that gives 50% inhibition. The term Ki denotes a dissociation constant, usually derived from enzyme kinetics or from competition with a known ligand. A higher Ki goes with a looser hold on the target.
